Patent US20130040935A1, “CYCLIC KETO-ENOLS FOR THERAPY” (BAYER INTELLECTUAL PROPERTY GMBH, priority 2010, published 2013)
Like-named read-outs stand apart in the source and are kept apart here.

Key:
[1] = molecular target: T1, human ACC1 (acetyl-coenzyme A carboxylase alpha transcript variant 1) (Homo sapiens, UniProt Q13085); experiment: Human ACC1 enzyme assay, Assay B1 (ADP-Glo); format: biochemical
T1 construct: FLAG (C); made in house; host or cells: baculovirus-infected insect cells (Hi5)
Protocol: Essentially, the enzyme activity is measured by quantifying the adenosine diphosphate (ADP) formed as a byproduct of the enzyme reactions using the ADP-Glo™ detection system from Promega. In this test, initially the adenosine triphosphate (ATP) not consumed in the enzyme reaction is converted quantitatively with an adenylate cyclase (“ADP-GLO reagent”) into cAMP, the adenylate cyclase is then stopped and (“kinase detection reagent”) the ADP formed is subsequently converted into ATP, which is converted in a luciferase-based reaction into a glow luminescence signal.
The concentration of the hACC1 was adapted to the respective activity of the enzyme and adjusted such that the assay operated in the linear range. […] The amount of light emitted was taken as a measure for the amount of ADP formed and thus for the enzyme activity of the hACC1.

MCF7 = experiment: Cell proliferation assay (CellTiter-Glo, 96 h), MCF7; format: cell-based; conditions: Homo sapiens
Procedure, shortened: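 Cells seeded 2000-5000/well, treated next day and incubated 96 h at 37° C; viability by CellTiter-Glo luminescence. t=0 luminescence subtracted from 96 h values for treated and untreated wells; percent growth inhibition derived relative to controls.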

[2] = molecular target: human ACC2 (acetyl-coenzyme A carboxylase 2) (Homo sapiens, UniProt O00763); experiment: Human ACC2 enzyme assay, Assay B2 (ADP-Glo);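 further: human ACC2 activity read as ADP product, detected by luciferase glow luminescence after residual ATP removal, enzyme near 2 ng/µl in linear range, detection steps at 22 °C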
human ACC2 (acetyl-coenzyme A carboxylase 2), sequence (O00763 27-2458 limits assumed): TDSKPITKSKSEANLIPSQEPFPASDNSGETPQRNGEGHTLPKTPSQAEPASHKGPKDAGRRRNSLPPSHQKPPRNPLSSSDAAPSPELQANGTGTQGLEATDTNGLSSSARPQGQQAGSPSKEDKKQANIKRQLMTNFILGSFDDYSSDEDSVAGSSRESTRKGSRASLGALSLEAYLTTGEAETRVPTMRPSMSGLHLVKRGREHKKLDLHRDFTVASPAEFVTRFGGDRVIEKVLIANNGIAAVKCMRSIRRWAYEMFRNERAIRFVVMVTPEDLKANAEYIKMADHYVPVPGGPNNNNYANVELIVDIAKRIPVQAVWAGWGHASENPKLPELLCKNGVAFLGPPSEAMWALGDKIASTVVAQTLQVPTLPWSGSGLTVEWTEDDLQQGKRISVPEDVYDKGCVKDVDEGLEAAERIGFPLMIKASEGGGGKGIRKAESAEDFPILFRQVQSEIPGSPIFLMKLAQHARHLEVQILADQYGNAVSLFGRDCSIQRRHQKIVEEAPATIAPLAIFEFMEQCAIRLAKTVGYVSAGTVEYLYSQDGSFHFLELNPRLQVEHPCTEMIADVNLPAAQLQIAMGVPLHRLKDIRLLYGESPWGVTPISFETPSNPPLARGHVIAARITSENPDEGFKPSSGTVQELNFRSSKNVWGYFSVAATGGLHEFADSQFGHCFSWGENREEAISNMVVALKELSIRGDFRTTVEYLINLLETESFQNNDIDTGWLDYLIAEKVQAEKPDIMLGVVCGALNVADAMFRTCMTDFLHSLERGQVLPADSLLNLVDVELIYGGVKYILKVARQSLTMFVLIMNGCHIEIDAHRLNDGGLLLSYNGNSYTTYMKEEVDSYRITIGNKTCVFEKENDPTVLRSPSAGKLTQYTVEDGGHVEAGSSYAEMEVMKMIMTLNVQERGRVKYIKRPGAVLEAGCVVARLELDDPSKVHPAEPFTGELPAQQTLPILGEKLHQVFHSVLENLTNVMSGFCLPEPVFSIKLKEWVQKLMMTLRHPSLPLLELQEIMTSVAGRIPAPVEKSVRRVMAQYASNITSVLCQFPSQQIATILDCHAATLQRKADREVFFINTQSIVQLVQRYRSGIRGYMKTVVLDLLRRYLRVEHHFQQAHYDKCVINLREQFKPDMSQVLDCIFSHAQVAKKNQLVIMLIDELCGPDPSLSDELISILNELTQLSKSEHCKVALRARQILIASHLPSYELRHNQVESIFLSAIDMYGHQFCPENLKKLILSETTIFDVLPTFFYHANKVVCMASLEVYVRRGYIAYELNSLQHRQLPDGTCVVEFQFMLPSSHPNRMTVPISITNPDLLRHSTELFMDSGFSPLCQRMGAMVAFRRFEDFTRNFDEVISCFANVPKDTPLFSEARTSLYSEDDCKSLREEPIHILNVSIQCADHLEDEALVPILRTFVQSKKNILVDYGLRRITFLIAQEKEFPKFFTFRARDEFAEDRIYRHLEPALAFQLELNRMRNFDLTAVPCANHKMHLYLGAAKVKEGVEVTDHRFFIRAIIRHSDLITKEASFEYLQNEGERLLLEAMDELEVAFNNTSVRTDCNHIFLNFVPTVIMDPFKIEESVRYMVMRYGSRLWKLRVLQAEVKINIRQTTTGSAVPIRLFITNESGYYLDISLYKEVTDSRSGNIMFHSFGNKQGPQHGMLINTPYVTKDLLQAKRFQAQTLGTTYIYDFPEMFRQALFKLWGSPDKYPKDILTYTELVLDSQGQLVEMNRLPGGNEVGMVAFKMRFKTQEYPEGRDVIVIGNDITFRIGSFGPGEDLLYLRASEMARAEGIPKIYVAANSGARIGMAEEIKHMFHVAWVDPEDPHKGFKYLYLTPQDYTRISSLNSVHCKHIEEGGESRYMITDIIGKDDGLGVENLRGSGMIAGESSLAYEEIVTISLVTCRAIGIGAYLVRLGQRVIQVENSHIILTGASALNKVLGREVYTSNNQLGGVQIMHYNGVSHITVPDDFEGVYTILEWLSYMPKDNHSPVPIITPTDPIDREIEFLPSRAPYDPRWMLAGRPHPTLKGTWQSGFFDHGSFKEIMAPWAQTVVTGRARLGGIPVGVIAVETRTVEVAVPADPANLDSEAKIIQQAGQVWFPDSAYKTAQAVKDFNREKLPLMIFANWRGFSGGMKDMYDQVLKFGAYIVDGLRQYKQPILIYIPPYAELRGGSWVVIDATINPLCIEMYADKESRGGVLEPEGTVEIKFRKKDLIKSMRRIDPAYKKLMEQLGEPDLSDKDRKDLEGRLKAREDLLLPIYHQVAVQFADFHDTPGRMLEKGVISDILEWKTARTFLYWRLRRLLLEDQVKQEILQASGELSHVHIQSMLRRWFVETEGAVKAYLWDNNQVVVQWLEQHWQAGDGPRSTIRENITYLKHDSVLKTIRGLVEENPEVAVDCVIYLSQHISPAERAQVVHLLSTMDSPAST

recombinant human ACC1 = recombinant human ACC1 (Homo sapiens, UniProt Q13085); experiment: Human ACC1 enzyme assay, Assay A1 (HTRF ADP immunoassay);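 further: ADP generated by the enzyme quantified via competitive time-resolved FRET, read as europium cryptate to d2 energy transfer after 1 h at 22 °C with labelled ADP tracer and anti-ADP antibody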
Protocol: The inhibitory activity of the substances of this invention with regard to acetyl-CoA carboxylase 1 (ACC1) was measured using the ACC1 assay described in the paragraphs below. The basic principle of the assay is the measurement of adenosine diphosphate (ADP), which is formed as a by-product, by means of an HTRF®-based competitive immunoassay (HTRF=Homogeneous Time Resolved Fluorescence).
Typical concentrations were in the range of 2.5 ng/μl.
The amount of complex between d2-labelled ADP and europium cryptate-labelled anti-ADP antibody was then determined by measuring the resonance energy transfer from the europium cryptate to d2.

[3] = molecular target: acetyl-CoA carboxylase 2 (ACC2) (Homo sapiens, UniProt O00763); experiment: Human ACC2 enzyme assay, Assay A2 (HTRF ADP immunoassay);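 further: ADP generated by ACC2 quantified via competitive time-resolved FRET between europium cryptate anti-ADP antibody and d2-tagged ADP, enzyme kept in linear range near 0.6 ng/µl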
acetyl-CoA carboxylase 2 (ACC2), sequence (O00763 39-2458 limits assumed): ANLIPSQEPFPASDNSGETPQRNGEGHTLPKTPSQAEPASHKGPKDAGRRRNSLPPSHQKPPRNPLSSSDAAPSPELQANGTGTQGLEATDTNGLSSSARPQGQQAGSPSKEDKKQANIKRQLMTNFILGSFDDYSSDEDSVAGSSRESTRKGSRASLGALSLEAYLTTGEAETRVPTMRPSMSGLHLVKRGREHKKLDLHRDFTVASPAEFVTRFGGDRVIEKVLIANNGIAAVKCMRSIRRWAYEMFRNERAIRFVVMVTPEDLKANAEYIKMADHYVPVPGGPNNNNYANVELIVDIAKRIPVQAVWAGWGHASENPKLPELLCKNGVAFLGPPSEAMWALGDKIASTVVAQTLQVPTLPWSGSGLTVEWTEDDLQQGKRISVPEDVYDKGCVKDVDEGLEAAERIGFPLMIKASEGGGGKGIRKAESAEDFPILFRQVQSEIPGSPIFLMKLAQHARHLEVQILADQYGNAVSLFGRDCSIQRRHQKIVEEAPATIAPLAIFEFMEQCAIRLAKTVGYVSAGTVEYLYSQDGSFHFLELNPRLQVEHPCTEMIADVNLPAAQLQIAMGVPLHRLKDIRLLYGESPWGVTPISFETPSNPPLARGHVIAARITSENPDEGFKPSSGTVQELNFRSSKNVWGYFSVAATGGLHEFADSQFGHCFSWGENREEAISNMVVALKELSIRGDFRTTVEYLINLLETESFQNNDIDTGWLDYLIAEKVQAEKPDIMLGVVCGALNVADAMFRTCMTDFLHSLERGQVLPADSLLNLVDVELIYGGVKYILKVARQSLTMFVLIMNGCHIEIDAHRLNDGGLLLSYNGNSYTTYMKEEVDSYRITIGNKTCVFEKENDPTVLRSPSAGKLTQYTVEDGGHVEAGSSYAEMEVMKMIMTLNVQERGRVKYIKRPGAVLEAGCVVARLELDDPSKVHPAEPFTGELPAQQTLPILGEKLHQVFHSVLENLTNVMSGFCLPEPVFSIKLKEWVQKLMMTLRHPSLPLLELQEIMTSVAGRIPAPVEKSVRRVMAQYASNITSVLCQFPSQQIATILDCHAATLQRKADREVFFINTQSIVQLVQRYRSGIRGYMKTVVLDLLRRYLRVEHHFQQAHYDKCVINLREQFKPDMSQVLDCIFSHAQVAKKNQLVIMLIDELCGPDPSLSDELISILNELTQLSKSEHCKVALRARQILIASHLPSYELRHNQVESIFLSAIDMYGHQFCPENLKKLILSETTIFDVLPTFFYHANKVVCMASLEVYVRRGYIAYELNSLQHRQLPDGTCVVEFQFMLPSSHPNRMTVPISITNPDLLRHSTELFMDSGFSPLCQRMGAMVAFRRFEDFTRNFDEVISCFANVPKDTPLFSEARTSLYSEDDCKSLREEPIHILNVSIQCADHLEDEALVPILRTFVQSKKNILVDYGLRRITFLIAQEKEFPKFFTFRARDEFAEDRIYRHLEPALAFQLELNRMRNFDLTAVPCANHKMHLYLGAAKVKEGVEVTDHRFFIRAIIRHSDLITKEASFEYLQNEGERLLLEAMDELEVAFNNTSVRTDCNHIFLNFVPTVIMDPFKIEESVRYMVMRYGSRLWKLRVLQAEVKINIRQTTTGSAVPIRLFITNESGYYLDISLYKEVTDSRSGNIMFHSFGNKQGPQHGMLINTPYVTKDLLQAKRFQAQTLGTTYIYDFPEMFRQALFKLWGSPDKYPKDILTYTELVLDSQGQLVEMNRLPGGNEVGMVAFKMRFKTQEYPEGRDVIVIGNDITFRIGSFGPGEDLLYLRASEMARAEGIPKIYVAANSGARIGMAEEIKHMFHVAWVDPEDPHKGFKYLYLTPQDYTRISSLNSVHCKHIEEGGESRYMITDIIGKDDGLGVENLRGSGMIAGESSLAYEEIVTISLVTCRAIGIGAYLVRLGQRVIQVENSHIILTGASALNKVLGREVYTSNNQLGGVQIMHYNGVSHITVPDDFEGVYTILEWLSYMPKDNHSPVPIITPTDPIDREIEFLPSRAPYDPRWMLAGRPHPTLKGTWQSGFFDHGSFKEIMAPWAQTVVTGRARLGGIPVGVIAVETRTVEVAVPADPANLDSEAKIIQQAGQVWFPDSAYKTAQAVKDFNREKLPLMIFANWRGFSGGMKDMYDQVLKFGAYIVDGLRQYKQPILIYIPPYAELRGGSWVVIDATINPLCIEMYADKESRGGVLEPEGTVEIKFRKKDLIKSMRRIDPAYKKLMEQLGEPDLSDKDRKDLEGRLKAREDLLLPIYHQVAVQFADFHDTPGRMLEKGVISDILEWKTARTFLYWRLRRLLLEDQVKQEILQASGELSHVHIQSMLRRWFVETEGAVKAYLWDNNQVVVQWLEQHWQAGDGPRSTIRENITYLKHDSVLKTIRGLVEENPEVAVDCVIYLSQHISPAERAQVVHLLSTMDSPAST
Protocol: The inhibitory activity of the substances of this invention with regard to acetyl-CoA carboxylase 2 (ACC2) was measured using the ACC2 assay described in the paragraphs below. The basic principle of the assay is the measurement of adenosine diphosphate (ADP), which is formed as a by-product, by means of an HTRF®-based competitive immunoassay (HTRF=Homogeneous Time Resolved Fluorescence).
The amount of complex of d2-labelled ADP and europium cryptate-labelled anti-ADP antibody was then determined by measuring the resonance energy transfer of europium cryptate to d2.

[4] = MCF7, Table 7, 96-hour incubation
[5] = Assay B1, read-out: ACC 1 (=B1) IC50
[6] = Assay B1, ADP-Glo, read-out: ACC 1 (=B1) IC50
[7] = MCF7, Table 9a, 96-hour incubation

Row | IC50 [1, 5] [nM] | IC50 [1, 6] [nM] | IC50 (MCF7; [7]) [nM] | SMILES | IC50 [1] [nM] | IC50 (MCF7; [4]) [nM] | IC50 [2] [nM] | IC50 (recombinant human ACC1) [nM] | IC50 [3] [nM] | IC50 (MCF7; MCF7 cells) [nM]
1 | – | – | – | CC1(C)CCC2(CC1)NC(=O)C(c1cc(-c3ccc(Cl)cc3)ccc1Cl)=C2O [1-138, 3-(4,4′-Dichlorobiphenyl-3-yl)-4-hydroxy-8,8-dimethyl-1-azaspiro[4.5]dec-3-en-2-one] | 172 | 54 | 2190 | 262 | 633 | –
2 | 98 | – | – | Cc1cc(F)c(-c2ccc(Cl)cc2)cc1C1=C(O)[C@]2(CC[C@](O)(C(F)(F)C(F)(F)F)CC2)NC1=O [1-131, (5r,8r)-3-(4′-Chloro-6-fluoro-4-methylbiphenyl-3-yl)-4,8-dihydroxy-8-(pentafluoroethyl)-1-azaspiro[4.5]dec-3-en-2-one] | – | 60 | 5620 | 266 | 7620 | –
3 | – | – | – | COC[C@H]1CC[C@]2(CC1)NC(=O)C(c1cc(-c3ccc(Cl)c(F)c3)ccc1Cl)=C2O [1-113, (5s,8s)-3-(4,4′-Dichloro-3′-fluorobiphenyl-3-yl)-4-hydroxy-8-(methoxymethyl)-1-azaspiro[4.5]dec-3-en-2-one] | 101 | 46 | 2710 | 260 | 1350 | –
4 | 267 | – | – | Cc1ccc(-c2ccc(F)c(F)c2)cc1C1=C(O)[C@]2(CC[C@@H](C(F)(F)F)CC2)NC1=O [1-129, (5r,8r)-3-(3′,4′-Difluoro-4-methylbiphenyl-3-yl)-4-hydroxy-8-(trifluoromethyl)-1-azaspiro[4.5]dec-3-en-2-one] | – | 172 | 10600 | 349 | 9610 | –
5 | 383 | – | – | Cc1ccc(-c2ccc(Cl)cc2)c(C)c1C1=C(O)[C@]2(CC[C@H](C(F)(F)F)CC2)NC1=O [1-95, (5s,8s)-3-(4′-Chloro-2,4-dimethylbiphenyl-3-yl)-4-hydroxy-8-(trifluoromethyl)-1-azaspiro[4.5]dec-3-en-2-one] | – | 88 | 2410 | 378 | 393 | –
6 | 63 | – | – | Cc1ccc(-c2ccc(Cl)c(F)c2)cc1C1=C(O)[C@]2(CC[C@H](C(F)(F)F)CC2)NC1=O [1-90, (5s,8s)-3-(4′-Chloro-3′-fluoro-4-methylbiphenyl-3-yl)-4-hydroxy-8-(trifluoromethyl)-1-azaspiro[4.5]dec-3-en-2-one] | – | – | 595 | 143 | 331 | –
7 | – | – | – | O=C1N[C@]2(CC[C@@H](C(F)(F)F)CC2)C(O)=C1c1cc(-c2ccc(Cl)c(F)c2)ccc1Cl [1-92, (5s,8s)-3-(4,4′-Dichloro-3′-fluorobiphenyl-3-yl)-4-hydroxy-8-(trifluoromethyl)-1-azaspiro[4.5]dec-3-en-2-one] | 72 | – | 1660 | 226 | 1450 | –
8 | – | – | – | Cc1c(F)cc(-c2ccc(Cl)cc2)cc1C1=C(O)[C@]2(CC[C@H](C(F)(F)F)CC2)NC1=O [1-91, (5s,8s)-3-(4′-Chloro 5 fluoro 4-methylbiphenyl-3-yl)-4-hydroxy-8-(trifluoromethyl)-1-azaspiro[4.5]dec-3-en-2-one] | 266 | – | 4990 | 302 | 5010 | –
9 | – | – | – | Cc1ccc(-c2ccc(F)c(F)c2)cc1C1=C(O)[C@]2(CC[C@H](C)CC2)NC1=O [1-145, (5s,8s)-3-(3′,4′-Difluoro-4-methylbiphenyl-3-yl)-4-hydroxy-8-methyl-1-azaspiro[4.5]dec-3-en-2-one] | – | 273 | – | 194 | 3310 | –
10 | – | – | – | CCc1cc(C)cc(Br)c1C1=C(O)C2(CCCCC2)NC1=O [V-4, reference compound] | – | – | – | 5400 | > 20000 | –
11 | 308 | – | – | Cc1ccc(-c2ccc(Cl)c(Cl)c2)cc1-c1c(O)c2ccc(Cl)cc2[nH]c1=O [9-7, 7-chloro-3-(3′,4′-dichloro-4-methyl-biphenyl-3-yl)-4-hydroxyquinolin-2(1H)-one] | – | – | 11200 | – | – | 1100
12 | – | – | – | Cc1ccc(-c2ccc(Cl)cc2)c(C)c1C1=C(O)C2(CCCOC2)NC1=O (stereo not shown) [1-10, 3-(4′-chloro-2,4-dimethylbiphenyl-3-yl)-4-hydroxy-7-oxa-1-azaspiro[4.5]dec-3-en-2-one] | 500 | 1300 | 9460 | – | – | –
13 | – | 6110 | – | Cc1ccc(-c2ccc(Cl)cc2)c(C)c1C1=C(O)[C@]2(CC[C@]3(CCCO3)CC2)OC1=O [2-26, (5s,8r)-3-(4′-chloro-2,4-dimethylbiphenyl-3-yl)-4-hydroxy-1,9-dioxadispiro[4.2.4.2]tetradec-3-en-2-one] | – | – | > 20000 | – | – | 5520
14 | 7110 | – | 2630 | Cc1cc(C)c(-c2ccc(Cl)cc2)cc1C1=C(O)C(C)(C)CCC1=O [7-4, 2-(4′-chloro-4,6-dimethylbiphenyl-3-yl)-3-hydroxy-4,4-dimethylcyclohex-2-en-1-one] | – | – | > 20000 | – | – | –
15 | – | – | – | Cc1ccc(-c2ccc(Cl)cc2)c(C)c1C1=C(O)C2(CCC(OCC(F)(F)F)CC2)OC1=O (stereo not shown) [2-32, 3-(4′-chloro-2,4-dimethylbiphenyl-3-yl)-4-hydroxy-8-(2,2,2-trifluoroethoxy)-1-oxaspiro[4.5]dec-3-en-2-one] | 339 | – | 2820 | – | – | 112
16 | 946 | – | 582 | CCCC1CCC2(CC1)CC(=O)C(c1cc(-c3ccc(Cl)cc3)ccc1C)=C2O (stereo not shown) [6-6, 3-(4′-chloro-4-methylbiphenyl-3-yl)-4-hydroxy-8-propylspiro[4.5]dec-3-en-2-one] | – | – | 1250 | – | – | –
17 | – | – | – | COC1CCC2(CC1)OC(=O)C(c1cc(-c3ccc(Cl)cc3)c(C)cc1C)=C2O (stereo not shown) [2-44, 3-(4′-chloro-4,6-dimethylbiphenyl-3-yl)-4-hydroxy-8-methoxy-1-oxaspiro[4.5]dec-3-en-2-one] | 220 | – | 244 | – | – | 121
18 | – | – | – | COC1CCC2(C1)NC(=O)C(c1c(C)ccc(-c3ccc(Cl)cc3)c1C)=C2O (stereo not shown) [1-48, 3-(4′-chloro-2,4-dimethylbiphenyl-3-yl)-4-hydroxy-7-methoxy-1-azaspiro[4.4]non-3-en-2-one] | 1560 | 852 | 10400 | – | – | –
19 | – | – | – | Cc1ccc(-c2ccc(Cl)cc2)cc1C1=C(O)C2CSCCN2C1=O (stereo not shown) [1-21, 7-(4′-chloro-4-methylbiphenyl-3-yl)-8-hydroxy-1,3,4,8a-tetrahydro-6H-pyrrolo[2,1-c][1,4]thiazin-6-one] | 630 | 392 | 10300 | – | – | –
20 | – | – | – | CO[C@H]1CC[C@]2(CC1)NC(=O)C(c1c(C)ccc(-c3ccc(Cl)cc3)c1C)=C2O [1-121, (5s,8s)-3-(4′-Chloro-2,4-dimethylbiphenyl-3-yl)-4-hydroxy-8-methoxy-1-azaspiro[4.5]dec-3-en-2-one] | 172 | 233 | 1010 | 402 | – | –
21 | 357 | – | – | Cc1ccc(-c2ccc(Cl)cc2)c(C)c1C1=C(O)C2(CCC(C)CC2)NC1=O (stereo not shown) [1-4, 3-(4′-chloro-2,4-dimethylbiphenyl-3-yl)-4-hydroxy-8-methyl-1-azaspiro[4.5]dec-3-en-2-one] | – | 54 | 558 | – | – | –
22 | – | – | – | COCC1CCCC2(C1)NC(=O)C(c1cc(-c3ccc(Cl)cc3)ccc1C)=C2O (stereo not shown) [1-51, 3-(4′-chloro-4-methylbiphenyl-3-yl)-4-hydroxy-7-(methoxymethyl)-1-azaspiro[4.5]dec-3-en-2-one] | 415 | 253 | 5450 | – | – | –
23 | – | – | – | COC1CCCC2(C1)OC(=O)C(c1c(C)cc(C)c(-c3ccc(Cl)cc3)c1C)=C2O (stereo not shown) [2-12, 3-(4′-chloro-2,4,6-trimethylbiphenyl-3-yl)-4-hydroxy-7-methoxy-1-oxaspiro[4.5]dec-3-en-2-one] | 4260 | – | 3420 | – | – | 1240
24 | – | – | – | Cc1ccc(-c2ccc(Cl)cc2)cc1C1=C(O)C(C)(C)OC1=O [2-3, 3-(4′-chloro-4-methylbiphenyl-3-yl)-4-hydroxy-5,5-dimethylfuran-2(5H)-one] | 3730 | – | > 20000 | – | – | 1060
25 | – | 102 | – | COCC1CCC2(CC1)OC(=O)C(c1cc(-c3ccc(Cl)cc3)ccc1C)=C2O (stereo not shown) [2-20, 3-(4′-chloro-4-methylbiphenyl-3-yl)-4-hydroxy-8-(methoxymethyl)-1-oxaspiro[4.5]dec-3-en-2-one] | – | – | 1720 | – | – | 214
26 | – | – | – | Cc1cc(C)c(-c2ccc(Cl)cc2)cc1C1=C(O)C2(CCCCCC2)OC1=O [2-43, 3-(4′-chloro-4,6-dimethylbiphenyl-3-yl)-4-hydroxy-1-oxaspiro[4.6]undec-3-en-2-one] | 168 | – | 737 | – | – | 263
27 | – | – | – | Cc1cc(C)c(-c2ccc(Cl)cc2)c(C)c1C1=C(O)[C@]2(CC[C@@]3(CCCO3)CC2)OC1=O [2-31, (5r,8s)-3-(4′-chloro-2,4,6-trimethylbiphenyl-3-yl)-4-hydroxy-1,9-dioxadispiro[4.2.4.2]tetradec-3-en-2-one] | 2000 | – | 76 | – | – | 490
28 | – | – | – | O=C1NC2(CCCCC2)C(O)=C1c1cc(-c2ccc(Cl)cc2)ccc1Cl [1-140, 3-(4,4′-Dichlorobiphenyl-3-yl)-4-hydroxy-1-azaspiro[4.5]dec-3-en-2-one] | – | 73 | – | 323 | 1520 | –
29 | 265 | – | 575 | Cc1cc(C)c(-c2ccc(Cl)cc2)cc1C1=C(O)C2(CCCCC2)SC1=O [3-3, 3-(4′-chloro-4,6-dimethylbiphenyl-3-yl)-4-hydroxy-1-thiaspiro[4.5]dec-3-en-2-one] | – | – | 1150 | – | – | –
